{"source": "patent US7045343B2", "about": "“Sterilization indicator test packs” (3M Innovative Properties Company, priority 1998, dated 2006)", "key": {"[1]": {"tested_on": "enzyme associated with Bacillus stearothermophilus spores", "test": "Rapid enzyme fluorescence readout of indicators after hydrogen peroxide plasma sterilization", "assay_type": "biochemical", "conditions": "for FLUORESCENCE - PERCENT POSITIVE 1 HR / FLUORESCENCE - PERCENT POSITIVE 2 HR / FLUORESCENCE - PERCENT POSITIVE 3 HR / FLUORESCENCE - PERCENT POSITIVE 4 HR / FLUORESCENCE - PERCENT POSITIVE 5 HR: 1–22 min diffusion", "in_short": "(§1)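 Indicators with a TYVEK closure held spores coated with various chemicals and were exposed to hydrogen peroxide plasma at 45–55 °C: 6–7 mg/ml chamber peroxide, diffusing 1–22 min at 6–10 Torr. Enzyme fluorescence was read hourly for 5 h at 60 °C. Growth was scored visually as a purple-to-yellow change after 168 h.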"}, "[2]": {"tested_on": "Bacillus stearothermophilus spores", "test": "Spore outgrowth (color change) of indicators after hydrogen peroxide plasma sterilization", "assay_type": "cell-based", "conditions": "1–22 min diffusion", "in_short": "as §1"}}, "data": [{"substance": "Decaglyceryl Decaoleate", "values": [{"measurement": "accuracy of sterilization indicators compared to indicators made with untreated spores", "setting": "[1]; 1–3 hours after exposure", "result": "improved"}, {"measurement": "accuracy of sterilization indicators compared to indicators made with untreated spores", "setting": "[1]; 2–3 hours after exposure", "result": "improved"}, {"measurement": "accuracy of sterilization indicators compared to indicators made with untreated spores", "setting": "[1]; 2–3 hours after exposure, concentrations of 5–100 mg/ml", "result": "improved"}, {"measurement": "FLUORESCENCE - PERCENT POSITIVE 1 HR", "setting": "[1]; Example 6, 10 mg/ml coating", "result": 83.7, "unit": "%"}, {"measurement": "FLUORESCENCE - PERCENT POSITIVE 2 HR", "setting": "[1]; Example 6, 10 mg/ml coating", "result": 100, "unit": "%"}, {"measurement": "FLUORESCENCE - PERCENT POSITIVE 3 HR", "setting": "[1]; Example 6, 10 mg/ml coating", "result": 100, "unit": "%"}, {"measurement": "FLUORESCENCE - PERCENT POSITIVE 4 HR", "setting": "[1]; Example 6, 10 mg/ml coating", "result": 100, "unit": "%"}, {"measurement": "FLUORESCENCE - PERCENT POSITIVE 5 HR", "setting": "[1]; Example 6, 10 mg/ml coating", "result": 100, "unit": "%"}, {"measurement": "FLUORESCENCE - PERCENT POSITIVE 1 HR", "setting": "[1]; Example 7, 10 mg/ml coating", "result": 83.7, "unit": "%"}, {"measurement": "FLUORESCENCE - PERCENT POSITIVE 2 HR", "setting": "[1]; Example 7, 10 mg/ml coating", "result": 100, "unit": "%"}, {"measurement": "FLUORESCENCE - PERCENT POSITIVE 3 HR", "setting": "[1]; Example 7, 10 mg/ml coating", "result": 100, "unit": "%"}, {"measurement": "FLUORESCENCE - PERCENT POSITIVE 4 HR", "setting": "[1]; Example 7, 10 mg/ml coating", "result": 100, "unit": "%"}, {"measurement": "FLUORESCENCE - PERCENT POSITIVE 5 HR", "setting": "[1]; Example 7, 10 mg/ml coating", "result": 100, "unit": "%"}, {"measurement": "FLUORESCENCE - PERCENT POSITIVE 1 HR", "setting": "[1]; Example 9, 5 mg/ml coating", "result": 65.7, "unit": "%"}, {"measurement": "FLUORESCENCE - PERCENT POSITIVE 2 HR", "setting": "[1]; Example 9, 5 mg/ml coating", "result": 100, "unit": "%"}, {"measurement": "FLUORESCENCE - PERCENT POSITIVE 3 HR", "setting": "[1]; Example 9, 5 mg/ml coating", "result": 100, "unit": "%"}, {"measurement": "FLUORESCENCE - PERCENT POSITIVE 4 HR", "setting": "[1]; Example 9, 5 mg/ml coating", "result": 100, "unit": "%"}, {"measurement": "FLUORESCENCE - PERCENT POSITIVE 5 HR", "setting": "[1]; Example 9, 5 mg/ml coating", "result": 100, "unit": "%"}, {"measurement": "FLUORESCENCE - PERCENT POSITIVE 1 HR", "setting": "[1]; Example 9, 7.5 mg/ml coating", "result": 83.5, "unit": "%"}, {"measurement": "FLUORESCENCE - PERCENT POSITIVE 2 HR", "setting": "[1]; Example 9, 7.5 mg/ml coating", "result": 100, "unit": "%"}, {"measurement": "FLUORESCENCE - PERCENT POSITIVE 3 HR", "setting": "[1]; Example 9, 7.5 mg/ml coating", "result": 100, "unit": "%"}, {"measurement": "FLUORESCENCE - PERCENT POSITIVE 4 HR", "setting": "[1]; Example 9, 7.5 mg/ml coating", "result": 100, "unit": "%"}, {"measurement": "FLUORESCENCE - PERCENT POSITIVE 5 HR", "setting": "[1]; Example 9, 7.5 mg/ml coating", "result": 100, "unit": "%"}, {"measurement": "FLUORESCENCE - PERCENT POSITIVE 1 HR", "setting": "[1]; Example 9, 10 mg/ml coating", "result": 83.7, "unit": "%"}, {"measurement": "FLUORESCENCE - PERCENT POSITIVE 2 HR", "setting": "[1]; Example 9, 10 mg/ml coating", "result": 100, "unit": "%"}, {"measurement": "FLUORESCENCE - PERCENT POSITIVE 3 HR", "setting": "[1]; Example 9, 10 mg/ml coating", "result": 100, "unit": "%"}, {"measurement": "FLUORESCENCE - PERCENT POSITIVE 4 HR", "setting": "[1]; Example 9, 10 mg/ml coating", "result": 100, "unit": "%"}, {"measurement": "FLUORESCENCE - PERCENT POSITIVE 5 HR", "setting": "[1]; Example 9, 10 mg/ml coating", "result": 100, "unit": "%"}, {"measurement": "FLUORESCENCE - PERCENT POSITIVE 1 HR", "setting": "[1]; Example 9, 50 mg/ml coating", "result": 85.0, "unit": "%"}, {"measurement": "FLUORESCENCE - PERCENT POSITIVE 2 HR", "setting": "[1]; Example 9, 50 mg/ml coating", "result": 90.2, "unit": "%"}, {"measurement": "FLUORESCENCE - PERCENT POSITIVE 3 HR", "setting": "[1]; Example 9, 50 mg/ml coating", "result": 100, "unit": "%"}, {"measurement": "FLUORESCENCE - PERCENT POSITIVE 4 HR", "setting": "[1]; Example 9, 50 mg/ml coating", "result": 100, "unit": "%"}, {"measurement": "FLUORESCENCE - PERCENT POSITIVE 5 HR", "setting": "[1]; Example 9, 50 mg/ml coating", "result": 100, "unit": "%"}, {"measurement": "FLUORESCENCE - PERCENT POSITIVE 1 HR", "setting": "[1]; Example 9, 100 mg/ml coating", "result": 73.3, "unit": "%"}, {"measurement": "FLUORESCENCE - PERCENT POSITIVE 2 HR", "setting": "[1]; Example 9, 100 mg/ml coating", "result": 86.7, "unit": "%"}, {"measurement": "FLUORESCENCE - PERCENT POSITIVE 3 HR", "setting": "[1]; Example 9, 100 mg/ml coating", "result": 100, "unit": "%"}, {"measurement": "FLUORESCENCE - PERCENT POSITIVE 4 HR", "setting": "[1]; Example 9, 100 mg/ml coating", "result": 100, "unit": "%"}, {"measurement": "FLUORESCENCE - PERCENT POSITIVE 5 HR", "setting": "[1]; Example 9, 100 mg/ml coating", "result": 100, "unit": "%"}, {"measurement": "NO. GROWTH POSITIVE 168 HR", "setting": "[2]; Example 6, 10 mg/ml coating", "result": 49}, {"measurement": "NO. GROWTH POSITIVE 168 HR", "setting": "[2]; Example 7, 10 mg/ml coating", "result": 49}, {"measurement": "NO. GROWTH POSITIVE 168 HR", "setting": "[2]; Example 9, 5 mg/ml coating", "result": 35}, {"measurement": "NO. GROWTH POSITIVE 168 HR", "setting": "[2]; Example 9, 7.5 mg/ml coating", "result": 35}, {"measurement": "NO. GROWTH POSITIVE 168 HR", "setting": "[2]; Example 9, 10 mg/ml coating", "result": 49}, {"measurement": "NO. GROWTH POSITIVE 168 HR", "setting": "[2]; Example 9, 50 mg/ml coating", "result": 21}, {"measurement": "NO. GROWTH POSITIVE 168 HR", "setting": "[2]; Example 9, 100 mg/ml coating", "result": 30}]}, {"substance": "Decaglyceryl Monostearate", "values": [{"measurement": "FLUORESCENCE - PERCENT POSITIVE 1 HR", "setting": "[1]; Example 7, 50 mg/ml coating", "result": 64.4, "unit": "%"}, {"measurement": "FLUORESCENCE - PERCENT POSITIVE 2 HR", "setting": "[1]; Example 7, 50 mg/ml coating", "result": 83.0, "unit": "%"}, {"measurement": "FLUORESCENCE - PERCENT POSITIVE 3 HR", "setting": "[1]; Example 7, 50 mg/ml coating", "result": 89.8, "unit": "%"}, {"measurement": "FLUORESCENCE - PERCENT POSITIVE 4 HR", "setting": "[1]; Example 7, 50 mg/ml coating", "result": 91.3, "unit": "%"}, {"measurement": "FLUORESCENCE - PERCENT POSITIVE 5 HR", "setting": "[1]; Example 7, 50 mg/ml coating", "result": 91.3, "unit": "%"}, {"measurement": "NO. GROWTH POSITIVE 168 HR", "setting": "[2]; Example 7, 50 mg/ml coating", "result": 59}]}]}
